{"source": "patent US20210401805A1", "about": "“Immune CB1 Activation for Obesity Therapy” (University of South Carolina, priority 2020, published 2021)", "key": {"[1]": {"system": "12-week HFD-fed DIO mice", "test": "DIO intervention study: body weight, fat mass, fat pad weight, food intake", "type": "in vivo", "conditions": "21 consecutive days"}, "[2]": {"system": "DIO mice", "conditions": "4 weeks' treatment of DIO mice; cited from earlier work"}, "[3]": {"system": "epididymal CD11b+F4/80+ ATMs and CD11c+ M1 ATMs", "test": "Flow cytometry of epididymal adipose tissue macrophages in DIO intervention study", "type": "in vivo, mice"}, "[4]": {"system": "12-week HFD-fed CB2−/− DIO mice", "test": "DIO intervention study in CB2-/- mice: body weight, adiposity, appetite", "type": "in vivo", "conditions": "AM251 10 mg/kg oral gavage, 21 consecutive days"}, "[5]": {"system": "6-week 36% HFD-fed mice", "conditions": "cited from earlier work"}, "[6]": {"system": "20 week 21% HFD-fed DIO mice", "conditions": "15 days of CB2 agonism; cited from earlier work"}, "[7]": {"system": "12-week HFD-fed DIO mice", "test": "Oral glucose tolerance test in DIO intervention study", "type": "in vivo", "conditions": "21 consecutive days"}, "[8]": {"system": "diet-induced obese (DIO) mice", "conditions": "treatment of DIO mice with CB1 antagonist; cited from earlier work"}, "[9]": {"system": "DIO mice", "conditions": "chronic administration in DIO mice; cited from earlier work"}, "[10]": {"conditions": "AM251 10 mg/kg oral gavage, WT DIO mice"}, "[11]": {"conditions": "6-week 36% HFD-fed mice, treatment for 15 days"}, "[12]": {"conditions": "JWH-133 5 mg/kg oral gavage, 21 consecutive days, 5 mg/kg"}, "[13]": {"conditions": "Deveaux et al., 15 day treatment of 6-week HFD-fed DIO"}, "[14]": {"conditions": "SR144528 10 mg/kg oral gavage, versus vehicle-treated mice"}}, "note": "Entries after “also recorded” stand apart in the source; their conditions may differ.", "data": [{"molecule": "Cc1c(C(=O)NN2CCCCC2)nn(-c2ccc(Cl)cc2Cl)c1-c1ccc(I)cc1", "note": "[AM251]", "values": [{"measurement": "fat pad mass", "setting": "[1]; AM251 10 mg/kg oral gavage", "value": "reduced"}, {"measurement": "adiposity", "setting": "[1]; [10]", "value": "reduced"}, {"measurement": "appetite", "setting": "[1]; [10]", "value": "suppressed"}, {"measurement": "body weight", "setting": "[1]; [10]", "value": "weight loss"}, {"measurement": "body weight", "setting": "[2]", "value": "rapid and sustained weight loss"}, {"measurement": "epididymal ATM numbers", "setting": "[3]; AM251 10 mg/kg oral gavage, after 3 weeks of treatment, 10 mg/kg", "value": "remained constant; also recorded: persistent abundance"}, {"measurement": "adiposity", "setting": "[4]", "value": "reduced"}, {"measurement": "appetite", "setting": "[4]", "value": "suppressed"}, {"measurement": "body weight", "setting": "[4]", "value": "weight loss"}]}, {"molecule": "COc1ccc(C(=O)c2c(C)n(CCN3CCOCC3)c3cc(I)ccc23)cc1", "note": "[AM630]", "values": [{"measurement": "adipose tissue inflammatory markers", "setting": "[5]; [11]", "value": "reduced"}, {"measurement": "ATMs", "setting": "[5]; 6-week 36% HFD-fed mice", "value": "reduced"}]}, {"molecule": "CCCn1c(C)c(C(=O)c2cccc3ccccc23)c2ccccc21", "note": "[JWH-015]", "values": [{"measurement": "adiposity", "setting": "[6]", "value": "reduced"}, {"measurement": "appetite response", "setting": "[6]", "value": "anorectic response"}, {"measurement": "body weight loss", "setting": "[6]", "value": "approximately 10%"}, {"measurement": "glucose tolerance", "setting": "[6]", "value": "improved"}, {"measurement": "lipolysis", "setting": "[6]", "value": "increased"}]}, {"molecule": "CCCC(C)(C)c1ccc2c(c1)OC(C)(C)[C@@H]1CC=C(C)C[C@@H]21", "note": "[JWH-133]", "values": [{"measurement": "body weight", "setting": "[1]; JWH-133 5 mg/kg oral gavage", "value": "did not significantly alter"}, {"measurement": "fat mass", "setting": "[1]; JWH-133 5 mg/kg oral gavage", "value": "did not significantly alter"}, {"measurement": "food intake", "setting": "[1]; JWH-133 5 mg/kg oral gavage", "value": "did not significantly alter"}, {"measurement": "fat pad mass", "setting": "[1]; JWH-133 5 mg/kg oral gavage, 5 mg/kg", "value": "fat pad loss; also recorded: fat pad shrinkage"}, {"measurement": "glucose tolerance", "setting": "[7]; JWH-133 5 mg/kg oral gavage", "value": "did not significantly alter"}, {"measurement": "numbers of M1 ATMs per gram of fat", "setting": "[3]; JWH-133 5 mg/kg oral gavage, 21 consecutive days", "value": "increased"}, {"measurement": "numbers of ATMs per gram of fat", "setting": "[3]; [12]", "value": "increased and more"}, {"measurement": "total ATMs", "setting": "[3]; [12]", "value": "promoted persistence; also recorded: stable abundance"}, {"measurement": "adipose tissue inflammatory markers", "setting": "[5]; [11]", "value": "increased"}, {"measurement": "body weight", "setting": "[5]; [11]", "value": "no change"}, {"measurement": "obesity", "setting": "[5]; [13]", "value": "potentiated"}, {"measurement": "white adipose tissue expression of Emr1 (macrophage marker F4/80)", "setting": "[5]; [13]", "value": "increased"}]}, {"molecule": "Cc1c(C(=O)NN2CCCCC2)nn(-c2ccc(Cl)cc2Cl)c1-c1ccc(Cl)cc1", "note": "[SR141716A]", "values": [{"measurement": "metabolic impairments", "setting": "[8]", "value": "amelioration"}, {"measurement": "obesity", "setting": "[8]", "value": "amelioration"}, {"measurement": "adipose tissue inflammation", "setting": "[2]", "value": "decreased"}, {"measurement": "body weight", "setting": "[2]", "value": "rapid and sustained weight loss"}]}, {"molecule": "CCCCCc1cc(O)c2c(c1)OC(C)(C)[C@@H]1CCC(C)=C[C@@H]21", "note": "[THC, delta-9-tetrahydrocannabinol]", "values": [{"measurement": "HFD-induced adiposity", "setting": "[9]", "value": "reduces"}, {"measurement": "HFD-induced polyphagia", "setting": "[9]", "value": "reduces"}, {"measurement": "HFD-induced weight gain", "setting": "[9]", "value": "reduces"}]}, {"molecule": "SR144528", "values": [{"measurement": "body weight", "setting": "[1]; [14]", "value": "no changes"}, {"measurement": "food intake", "setting": "[1]; [14]", "value": "no changes"}, {"measurement": "glucose tolerance", "setting": "[7]; [14]", "value": "no changes"}, {"measurement": "adipose tissue inflammation", "setting": "[3]; SR144528 10 mg/kg oral gavage, 21 consecutive days, versus vehicle-treated mice", "value": "no changes"}]}]}
